Common to all, as to type: cell-based
Assay [1] has as its target human α1H T-type channels (Homo sapiens, UniProt O95180). Description: T-type calcium channel block, whole cell patch clamp, α1H. As to conditions: HEK cells stably expressing human α1H; mainly non-inactivated protocol; values above 10,000 nM represented as 10000. The gist of the method:
(§1)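 Using standard patch-clamp, T-type currents were recorded from stably transfected human α1G or α1H HEK 293 cells. Separate non-inactivating and inactivation voltage protocols distinguished resting from voltage-dependent block by locally applied compound in 0.1-0.01% DMSO.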

For assay [2], the target named is human α1G T-type channels (Homo sapiens, UniProt O43497). Description: T-type calcium channel block, whole cell patch clamp, α1G. As to conditions: HEK cells stably expressing human α1G; mainly non-inactivated protocol; values above 10,000 nM represented as 10000. In short, it runs like this:
as §1
For orientation: The patch-clamp technique gives a direct electrical read-out from membranes.

For assay [3], the target named is N-type calcium channel subunits (α1B, α2δ, and β3a) (Homo sapiens, UniProt Q00975). Description: Block of Cav2.2 channel, whole cell voltage clamp, manual and PatchXpress. As to conditions: Table 5; table follows Assay Example 3 (whole cell voltage clamp / PatchXpress); assay not given. In short, it runs like this: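 Percent block taken as current amplitude ratio with versus without compound, applied in rising doses; IC50 fitted where one cell received multiple doses. Protocol: 50 ms pulses to +20 mV at 0.067 Hz from […] or −90 mV holding; P/n leak subtraction, no junction-potential correction; manual and PatchXpress recordings.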

As a reminder, the IC50 is the point on the concentration scale where inhibition reaches its midpoint.

Sequence of human α1G T-type channels (O43497 whole entry): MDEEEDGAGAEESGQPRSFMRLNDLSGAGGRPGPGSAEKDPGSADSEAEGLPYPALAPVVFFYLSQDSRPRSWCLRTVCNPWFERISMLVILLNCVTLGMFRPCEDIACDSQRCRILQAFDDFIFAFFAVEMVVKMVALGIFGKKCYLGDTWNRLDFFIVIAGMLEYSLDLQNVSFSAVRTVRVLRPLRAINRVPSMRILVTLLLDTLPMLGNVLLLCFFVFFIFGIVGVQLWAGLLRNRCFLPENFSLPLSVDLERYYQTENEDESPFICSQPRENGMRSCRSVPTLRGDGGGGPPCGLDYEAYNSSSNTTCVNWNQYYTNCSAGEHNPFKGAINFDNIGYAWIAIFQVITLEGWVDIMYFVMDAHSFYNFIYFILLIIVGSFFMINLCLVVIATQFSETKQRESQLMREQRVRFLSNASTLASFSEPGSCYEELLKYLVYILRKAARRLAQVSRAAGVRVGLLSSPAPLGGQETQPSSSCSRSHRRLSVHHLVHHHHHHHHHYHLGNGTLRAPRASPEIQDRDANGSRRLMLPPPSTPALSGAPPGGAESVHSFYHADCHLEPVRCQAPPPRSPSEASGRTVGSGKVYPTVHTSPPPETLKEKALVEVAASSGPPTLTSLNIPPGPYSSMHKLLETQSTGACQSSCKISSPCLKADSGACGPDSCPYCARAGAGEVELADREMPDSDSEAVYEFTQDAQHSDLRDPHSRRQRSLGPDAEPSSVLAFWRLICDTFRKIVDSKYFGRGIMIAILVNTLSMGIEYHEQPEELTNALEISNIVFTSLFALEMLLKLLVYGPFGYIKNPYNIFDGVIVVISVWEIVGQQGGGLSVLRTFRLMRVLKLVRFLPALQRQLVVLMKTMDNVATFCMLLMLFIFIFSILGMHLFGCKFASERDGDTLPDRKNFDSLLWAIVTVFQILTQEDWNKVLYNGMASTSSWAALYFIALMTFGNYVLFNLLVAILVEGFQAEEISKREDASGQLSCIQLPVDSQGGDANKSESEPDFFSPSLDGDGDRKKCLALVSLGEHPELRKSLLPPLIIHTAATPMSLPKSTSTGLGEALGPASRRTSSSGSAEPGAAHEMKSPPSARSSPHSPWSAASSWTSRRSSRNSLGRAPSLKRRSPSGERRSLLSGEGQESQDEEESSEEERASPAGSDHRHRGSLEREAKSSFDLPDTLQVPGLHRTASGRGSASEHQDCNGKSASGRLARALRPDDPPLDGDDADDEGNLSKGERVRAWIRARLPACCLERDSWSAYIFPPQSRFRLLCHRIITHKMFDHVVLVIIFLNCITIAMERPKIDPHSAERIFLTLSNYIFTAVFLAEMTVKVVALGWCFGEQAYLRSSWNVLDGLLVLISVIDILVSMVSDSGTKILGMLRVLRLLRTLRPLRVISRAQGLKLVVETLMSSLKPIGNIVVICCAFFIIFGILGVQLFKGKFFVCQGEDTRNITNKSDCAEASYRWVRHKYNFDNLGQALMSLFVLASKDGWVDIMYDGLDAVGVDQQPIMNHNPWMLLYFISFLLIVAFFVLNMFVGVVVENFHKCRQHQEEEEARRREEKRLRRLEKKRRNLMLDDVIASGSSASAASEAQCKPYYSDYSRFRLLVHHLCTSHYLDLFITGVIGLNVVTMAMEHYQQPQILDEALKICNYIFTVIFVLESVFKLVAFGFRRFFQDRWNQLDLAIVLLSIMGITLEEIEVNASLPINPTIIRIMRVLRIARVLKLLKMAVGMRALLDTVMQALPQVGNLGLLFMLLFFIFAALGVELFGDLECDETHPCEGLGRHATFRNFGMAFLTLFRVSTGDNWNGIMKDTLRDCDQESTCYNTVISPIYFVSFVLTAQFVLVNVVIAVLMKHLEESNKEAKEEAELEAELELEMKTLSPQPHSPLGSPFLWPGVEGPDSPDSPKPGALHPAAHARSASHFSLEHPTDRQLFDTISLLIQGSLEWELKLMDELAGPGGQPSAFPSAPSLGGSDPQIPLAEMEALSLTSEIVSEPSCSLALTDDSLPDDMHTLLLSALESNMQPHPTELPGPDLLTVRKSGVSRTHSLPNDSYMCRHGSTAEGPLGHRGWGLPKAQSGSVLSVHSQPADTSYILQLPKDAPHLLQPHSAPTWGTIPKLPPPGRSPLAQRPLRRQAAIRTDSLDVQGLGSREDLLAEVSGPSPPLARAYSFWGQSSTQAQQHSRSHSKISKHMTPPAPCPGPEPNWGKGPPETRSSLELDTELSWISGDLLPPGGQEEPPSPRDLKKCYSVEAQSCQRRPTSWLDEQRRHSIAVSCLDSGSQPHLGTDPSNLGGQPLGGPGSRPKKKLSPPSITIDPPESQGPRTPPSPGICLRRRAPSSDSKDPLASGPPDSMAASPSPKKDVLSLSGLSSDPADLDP
Sequence of human α1H T-type channels (O95180 whole entry): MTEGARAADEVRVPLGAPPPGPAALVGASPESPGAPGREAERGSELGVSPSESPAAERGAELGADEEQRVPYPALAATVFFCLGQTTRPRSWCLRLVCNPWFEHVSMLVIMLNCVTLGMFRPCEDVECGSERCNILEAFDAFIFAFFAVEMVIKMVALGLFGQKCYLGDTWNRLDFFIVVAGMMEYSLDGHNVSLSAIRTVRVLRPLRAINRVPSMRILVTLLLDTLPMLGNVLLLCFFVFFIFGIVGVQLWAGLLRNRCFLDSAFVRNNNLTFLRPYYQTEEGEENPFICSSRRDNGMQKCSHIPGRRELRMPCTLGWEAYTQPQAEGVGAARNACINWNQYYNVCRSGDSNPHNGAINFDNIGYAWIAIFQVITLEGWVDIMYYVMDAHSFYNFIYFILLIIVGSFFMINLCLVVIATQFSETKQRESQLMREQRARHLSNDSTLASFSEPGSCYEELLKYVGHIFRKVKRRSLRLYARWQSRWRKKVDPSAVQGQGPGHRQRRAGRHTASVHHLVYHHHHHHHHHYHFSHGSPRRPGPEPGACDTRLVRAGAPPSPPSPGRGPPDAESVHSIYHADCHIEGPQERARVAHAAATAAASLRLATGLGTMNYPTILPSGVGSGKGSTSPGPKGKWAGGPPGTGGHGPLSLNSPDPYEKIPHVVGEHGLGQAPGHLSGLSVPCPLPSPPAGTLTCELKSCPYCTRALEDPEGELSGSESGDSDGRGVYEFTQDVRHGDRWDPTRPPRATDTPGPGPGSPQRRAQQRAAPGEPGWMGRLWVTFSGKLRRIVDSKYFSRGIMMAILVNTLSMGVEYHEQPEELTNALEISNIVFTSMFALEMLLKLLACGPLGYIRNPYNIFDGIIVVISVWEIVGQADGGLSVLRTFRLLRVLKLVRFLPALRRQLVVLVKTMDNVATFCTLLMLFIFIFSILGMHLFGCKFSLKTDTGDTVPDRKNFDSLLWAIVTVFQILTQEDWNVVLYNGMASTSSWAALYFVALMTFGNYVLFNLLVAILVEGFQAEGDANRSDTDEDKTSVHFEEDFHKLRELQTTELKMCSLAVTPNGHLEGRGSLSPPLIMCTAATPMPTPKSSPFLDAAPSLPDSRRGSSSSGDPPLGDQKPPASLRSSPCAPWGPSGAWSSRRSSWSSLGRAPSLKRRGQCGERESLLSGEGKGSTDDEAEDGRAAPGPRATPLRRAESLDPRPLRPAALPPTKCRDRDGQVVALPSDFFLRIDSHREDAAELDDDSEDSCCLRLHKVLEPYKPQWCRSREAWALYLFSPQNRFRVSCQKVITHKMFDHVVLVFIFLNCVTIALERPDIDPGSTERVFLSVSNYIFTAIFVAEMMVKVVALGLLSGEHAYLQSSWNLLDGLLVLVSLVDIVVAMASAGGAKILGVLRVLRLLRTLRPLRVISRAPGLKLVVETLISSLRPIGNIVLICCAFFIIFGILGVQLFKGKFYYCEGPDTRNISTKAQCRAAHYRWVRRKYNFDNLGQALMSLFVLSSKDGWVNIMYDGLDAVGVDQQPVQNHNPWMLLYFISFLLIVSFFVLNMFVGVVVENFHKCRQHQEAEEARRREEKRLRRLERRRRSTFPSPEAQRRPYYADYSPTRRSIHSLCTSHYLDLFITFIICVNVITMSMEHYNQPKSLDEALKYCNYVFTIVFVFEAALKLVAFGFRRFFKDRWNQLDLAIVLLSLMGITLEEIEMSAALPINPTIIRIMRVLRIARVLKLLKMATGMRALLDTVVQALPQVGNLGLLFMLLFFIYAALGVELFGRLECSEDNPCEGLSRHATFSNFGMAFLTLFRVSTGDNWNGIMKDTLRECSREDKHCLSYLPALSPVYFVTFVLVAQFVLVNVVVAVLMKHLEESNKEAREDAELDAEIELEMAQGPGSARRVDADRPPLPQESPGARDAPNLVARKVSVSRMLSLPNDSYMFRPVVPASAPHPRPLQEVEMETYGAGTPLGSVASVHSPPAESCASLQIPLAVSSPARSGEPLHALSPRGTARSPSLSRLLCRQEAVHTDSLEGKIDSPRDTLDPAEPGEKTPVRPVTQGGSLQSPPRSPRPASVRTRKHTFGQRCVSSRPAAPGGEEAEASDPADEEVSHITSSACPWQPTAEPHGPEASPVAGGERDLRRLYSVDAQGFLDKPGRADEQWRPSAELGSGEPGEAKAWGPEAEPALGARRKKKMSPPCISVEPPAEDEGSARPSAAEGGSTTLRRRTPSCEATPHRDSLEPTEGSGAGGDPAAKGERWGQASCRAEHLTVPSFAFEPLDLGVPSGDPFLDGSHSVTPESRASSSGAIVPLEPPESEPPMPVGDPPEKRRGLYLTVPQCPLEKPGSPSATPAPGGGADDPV

Consider `CS(=O)(=O)c1ccc(C(=O)N[C@H]2CC[C@@](F)(S(=O)(=O)c3cccc(C(F)(F)F)c3)CC2)c(Cl)c1` [Compound 263, 2-chloro-N-((1S,4S)-4-fluoro-4-(3-(trifluoromethyl)phenylsulfonyl)cyclohexyl)-4-(methylsulfonyl)benzamide], for which the IC50 in assay [1] stood at 1360 nM; in assay [2] it was 2230 nM; in assay [3], 2510 nM.
For `O=C(NC[C@H]1C[C@@H](S(=O)(=O)c2cccc(C(F)(F)F)c2)C1)c1ccnc(C(F)(F)F)c1` [Compound 386, 2-(trifluoromethyl)-N-(((1S,3S)-3-(3-(trifluoromethyl)phenylsulfonyl)cyclobutyl)methyl)isonicotinamide], the results for the IC50 in assay [1], in assay [2] and in assay [3] were 270 nM, 490 nM and 2370 nM, respectively.
Regarding `O=C(N[C@H]1CC[C@@](F)(S(=O)(=O)c2cccc(C(F)(F)F)c2)CC1)[C@@H]1C[C@@H](Cc2ccc(F)cc2)CN1` [Compound 287, (2S,4R)-N-((1S,4R)-4-fluoro-4-(3-(trifluoromethyl)phenylsulfonyl)cyclohexyl)-4-(4-fluorobenzyl)pyrrolidine-2-carboxamide], the IC50 in assay [1] worked out at 1130 nM; in assay [2] it was 6500 nM; in assay [3], 310 nM.
For the compound `COc1cc(F)cc(C(=O)N[C@H]2CC[C@H](CS(=O)(=O)c3cccc(C(F)(F)F)c3)CC2)c1` [Compound 100, 3-fluoro-5-methoxy-N-((1R,4R)-4-((3-(trifluoromethyl)phenylsulfonyl)methyl)cyclohexyl)benzamide], the IC50 came to 1790 nM in assay [1], 5390 nM in assay [2] and 2320 nM in assay [3].
Regarding `Cn1nc(C(F)(F)F)cc1C(=O)N[C@H]1CC[C@@](F)(S(=O)(=O)c2cccc(OC(F)(F)F)c2)CC1` [Compound 255, N-((1S,4S)-4-fluoro-4-(3-(trifluoromethoxy)phenylsulfonyl)cyclohexyl)-1-methyl-3-(trifluoromethyl)-1H-pyrazole-5-carboxamide], the IC50 was 3320 nM in assay [1], 2010 nM in assay [2] and 210 nM in assay [3].
Consider `Cn1nc(C(F)(F)F)cc1C(=O)NC1CCC(S(=O)(=O)c2cccc(C(F)(F)F)c2)CC1` (stereo not drawn) [Compound 13, 1-methyl-3-(trifluoromethyl)-N-(4-(3-(trifluoromethyl)phenylsulfonyl)cyclohexyl)-1H-pyrazole-5-carboxamide], for which the IC50 is over 10000 nM in assay [1], over 10000 nM in assay [2] and 690 nM in assay [3].
In the case of `O=C(NC1CCC(S(=O)(=O)c2cccc(C(F)(F)F)c2)CC1)c1ccn(CC(F)(F)F)n1` (stereo not drawn) [Compound 14, 1-(2,2,2-trifluoroethyl)-N-(4-(3-(trifluoromethyl)phenylsulfonyl)cyclohexyl)-1H-pyrazole-3-carboxamide], the figures for the half-inhibitory concentration (IC50) in assay [1], in assay [2] and in assay [3] were 330 nM, 1320 nM and 2210 nM, respectively.
For the compound `CC(C)(NC(=O)[C@H]1C[C@H](S(=O)(=O)c2cccc(C(F)(F)F)c2)C1)c1ccc(F)cc1` [Compound 402, (1R,3R)-N-(2-(4-fluorophenyl)propan-2-yl)-3-(3-(trifluoromethyl)phenylsulfonyl)cyclobutane carboxamide], the IC50 in assay [1] is 570 nM; in assay [2], 640 nM; in assay [3], 1700 nM.
Turning to `Cn1nc(C(F)(F)F)cc1NC(=O)[C@H]1C[C@@H](S(=O)(=O)c2cccc(C(F)(F)F)c2)C1` [Compound 408, (1S,3S)-N-(1-methyl-3-(trifluoromethyl)-1H-pyrazol-5-yl)-3-(3-(trifluoromethyl)phenylsulfonyl)cyclobutane carboxamide], the results for the half-maximal inhibitory concentration (IC50) in assay [1], in assay [2] and in assay [3] were 420 nM, 8000 nM and 2490 nM, respectively.
Taken in the same sequence, the figures for `O=S(=O)(CCC(F)(F)F)N[C@H]1CC[C@@](F)(S(=O)(=O)c2cccc(C(F)(F)F)c2)CC1` [Compound 295, 3,3,3-trifluoro-N-((1S,4S)-4-fluoro-4-(3-(trifluoromethyl)phenylsulfonyl)cyclohexyl) propane-1-sulfonamide] were 320 nM, 630 nM and 790 nM.
Take `CC(C)S(=O)(=O)c1cc(C(F)(F)F)cnc1C(=O)N[C@H]1CC[C@H](S(=O)(=O)c2cccc(C(F)(F)F)c2)CC1` [Compound 340, 3-(isopropylsulfonyl)-5-(trifluoromethyl)-N-((1R,4R)-4-(3-(trifluoromethyl)phenylsulfonyl)cyclohexyl) picolinamide]: the IC50 in assay [1] was 3170 nM; in assay [2] it was 9870 nM; in assay [3], 2010 nM.
In the case of `CC1(NC(=O)c2ccc(F)c(Cl)c2)CCC(S(=O)(=O)c2cccc(C(F)(F)F)c2)CC1` (stereo not drawn) [Compound 310, 3-chloro-4-fluoro-N-(1-methyl-4-(3-(trifluoromethyl)phenylsulfonyl)cyclohexyl) benzamide], the IC50 in assay [1] amounted to 5710 nM; in assay [2], 6340 nM; in assay [3], 1160 nM.
In the case of `O=C(N[C@H]1CC[C@@](F)(S(=O)(=O)c2cccc(C(F)(F)F)c2)CC1)c1cc(C(F)(F)F)ccn1` [Compound 84, N-((1S,4S)-4-fluoro-4-(3-(trifluoromethyl)phenylsulfonyl)cyclohexyl)-4-(trifluoromethyl)picolinamide], the IC50 in assay [1] came out at 650 nM; in assay [2] it was 2870 nM; in assay [3] it was 310 nM.
For the compound `CC(C)(C)NC(=O)CN[C@H]1CC[C@H](S(=O)(=O)c2cccc(C(F)(F)F)c2)CC1` [Compound 69, N-tert-butyl-2-((1R,4R)-4-(3-(trifluoromethyl)phenylsulfonyl)cyclohexylamino)acetamide], the IC50 was over 10000 nM in assay [1], over 10000 nM in assay [2] and 1650 nM in assay [3].
`O=C(Nc1ccc(Oc2ccc(F)c(Cl)c2)nc1)[C@H]1C[C@H](S(=O)(=O)c2cccc(C(F)(F)F)c2)C1` [Compound 399, (1R,3R)-N-(6-(3-chloro-4-fluorophenoxy)pyridin-3-yl)-3-(3-(trifluoromethyl)phenylsulfonyl)cyclobutane carboxamide]: the IC50 is 1060 nM in assay [1], 1250 nM in assay [2] and 1140 nM in assay [3].
As for `O=C(CNCC1CC(S(=O)(=O)c2cccc(C(F)(F)F)c2)C1)NC1CCCCC1` (stereo not drawn) [Compound 97, N-cyclohexyl-2-((3-(3-(trifluoromethyl)phenylsulfonyl)cyclobutyl)methylamino)acetamide], the IC50 in assay [1] was over 10000 nM; in assay [2] it was 2140 nM; in assay [3] it was 490 nM.
For `O=C(NC[C@H]1C[C@@H](S(=O)(=O)c2cccc(C(F)(F)F)c2)C1)c1ccc(F)c(Cl)c1` [Compound 379, 3-chloro-4-fluoro-N-(((1S,3S)-3-(3-(trifluoromethyl)phenylsulfonyl)cyclobutyl)methyl)benzamide], in that order: 300 nM, 1810 nM and 830 nM.
For the compound `COc1cc(F)cc(C(=O)N[C@H]2C[C@H](CS(=O)(=O)c3cccc(C(F)(F)F)c3)C2)c1` [Compound 349, 3-fluoro-5-methoxy-N-((1R,3R)-3-((3-(trifluoromethyl)phenylsulfonyl)methyl)cyclobutyl)benzamide], the IC50 in assay [1] is over 10000 nM; in assay [2], over 10000 nM; in assay [3], 890 nM.
Turning to `O=C(N[C@H]1CC[C@@](F)(S(=O)(=O)c2cc(F)cc(C(F)(F)F)c2)CC1)c1cc(C(F)(F)F)n[nH]1` [Compound 324, N-((1S,4S)-4-fluoro-4-(3-fluoro-5-(trifluoromethyl)phenylsulfonyl)cyclohexyl)-3-(trifluoromethyl)-1H-pyrazole-5-carboxamide], the IC50 in assay [1] came out at 1220 nM; in assay [2] it was 3180 nM; in assay [3] it was 1060 nM.
Turning to `CN(C(=O)c1ccc(F)c(C(F)(F)F)c1)[C@H]1CC[C@@](F)(S(=O)(=O)c2cc(F)cc(C(F)(F)F)c2)CC1` [Compound 334, 4-fluoro-N-((1S,4S)-4-fluoro-4-(3-fluoro-5-(trifluoromethyl)phenylsulfonyl)cyclohexyl)-N-methyl-3-(trifluorornethyl) benzamide], the results for the IC50 in assay [1], in assay [2] and in assay [3] were 2390 nM, over 10000 nM and 360 nM, respectively.
As for `O=C(N[C@H]1CC[C@@](F)(S(=O)(=O)c2cc(F)cc(C(F)(F)F)c2)CC1)c1cn2cc(C(F)(F)F)ccc2n1` [Compound 332, N-((1S,4S)-4-fluoro-4-(3-fluoro-5-(trifluoromethyl)phenylsulfonyl)cyclohexyl)-6-(trifluoromethyl)imidazo[l,2-a]pyridine-2-carboxamide], the IC50 in assay [1] amounted to 780 nM; in assay [2] it was 1560 nM; in assay [3], 620 nM.
As for `CC1(CNC(=O)c2ccc(C(F)(F)F)cc2S(C)(=O)=O)CCC(S(=O)(=O)c2cccc(C(F)(F)F)c2)CC1` (stereo not drawn) [Compound 207], the results for the IC50 in assay [1], in assay [2] and in assay [3] were 1130 nM, 1340 nM and 260 nM, respectively.
For `O=C(CN[C@H]1CC[C@H](CS(=O)(=O)c2cccc(C(F)(F)F)c2)CC1)NCC(F)(F)F` [Compound 113, N-(2,2,2-trifluoroethyl)-2-((1R,4R)-4-((3-(trifluoromethyl)phenylsulfonyl)methyl)cyclohexylamino)acetamide], in that order: 5350 nM, over 10000 nM and 130 nM.

For the origin of these results see patent US20120245137A1 (Zalicus Pharmaceuticals Ltd., priority 2009, published 2012).
